Consider two molecules from US5561131A, “Defaunation method” (Mallinckrodt Veterinary, Inc., priority 1991, dated 1996).

The test system of data set [1] is protozoa. As to the kind of experiment: Wool growth trial: protozoal number. It counts as in vivo. Particulars: sheep, defaunated period, 167 mg/kg. The method, then:
(§1) Seven sheep each were defaunated using a dose rate of 167 mg/kg. Compounds were administered by first mixing with 20 ml of ethanol and then with 200 ml of centrifuged rumen liquor. This solution was then administered via a flexible stomach tube directly into the rumen. The sheep were fed with a ration of 90% oaten chaff and 10% Lucerne chaff at a rate of 1000 g per day. The sheep were maintained in a defaunated state by their isolation from faunated sheep to prevent the possibility of refaunation. The sheep were allowed to adjust for 3 weeks after administering the compound before any wool growth measurements were taken.
(§2) At the start of the wool growth measurement period, a 10 cm square area of wool was removed from both sides of the sheep. After four weeks the same area was reclipped and the wool retained for scouring at the end of the trial.
(§3) The sheep then had protozoa introduced back into their rumen and were allowed to adjust for three weeks. Similarly, during the second four week period, the wool was clipped from the same patch area. The wool harvested during the two four week trial periods was then scoured of wool wax and extraneous material and weighed.

The test system of data set [2] is protozoa. As to the kind of experiment: Cattle defaunation. The following applies: for Elimination of protozoa from cattle (in words): 332 mg/kg. It is filed as in vivo. The method, then:
Four cattle each were defaunated using either compounds No. 27 or No. 37 at a dose rate of 332 mg/kg. The compounds were administered by firstly mixing with 100 mL of ethanol and then adding 400 mL of centrifuged rumen liquor. This mixture was then administered into the rumen of the animal using a stomach tube.

In a further data set the test system is rumen ciliate protozoa. Kind of data set: In vitro activity of defaunation compounds against rumen ciliate protozoa. It is filed as cell-based. Particulars: 39° C., anaerobic, 3 hours, tested at 50, 150, 250 and 500 ppm.
Another data set can be described thus: Sheep test: feed intake. It is filed as in vivo. The method, then:
(§4) In this trial the effect of defaunation by compounds 27, 30 and 37 (see Table 1) after 1 and 3 weeks were examined using penned sheep.
(§5) The compounds were each administered to two sheep as a single dose at 167 mg/kg body weight. Compositions containing each compound were prepared according to the method of Example 1. Sheep were penned and fed 1000 g/day of a chaffed oaten hay and Lucerne mixture (90/10). Protozoal and bacterial viabilities were monitored along with the feed intake of the sheep according to the methods taught in Examples 2, 3 and 7.

In data set [3] the test system is protozoa. As to the kind of experiment: Pilot field testing: elimination of protozoal population in sheep. It counts as in vivo. The following applies: for Elimination of protozoa: one week after single dose of 167 mg/kg. On the procedure: (§6) In this trial the effect of defaunation agents after 1 and 2 weeks was examined in sheep in pilot field studies.
(§7) Thirty mature fine wooled merino weather sheep consuming a forage diet were given a single dose of either compound 27 or 37. The dose rate was 167 mg/kg and each compound was dispersed in 20 mL of ethanol and 200 mL of centrifuged rumen liquor. The compounds were then administered into the rumen using a flexible stomach tube.

The nature of data set [4]: Pilot field testing: adverse effects and grazing behavior. Particulars: sheep, 167 mg/kg. It is filed as in vivo. The method, then: as §6, §7
Data set [5] relates to rumen bacteria. Kind of data set: Bacterial viability in sheep after administering defaunation compounds. Further: key: Poor: reduction in gas; Okay: same as predosing levels; Good: increase relative to predosing levels. It counts as in vivo. Particulars: gas production one week after dosing vs pre-dosing.
In data set [6] the test system is protozoa. Kind of data set: Sheep test: protozoal numbers. It is filed as in vivo. On the procedure: as §4, §5
The test system of data set [7] is rumen bacteria. Kind of data set: In vitro bacterial gas inhibition. The following applies: at the concentration known to kill protozoa. It counts as cell-based.
Data set [8] concerns rumen bacteria. Kind of data set: Sheep test: bacterial gas production. It is filed as in vivo. The method, then: as §4, §5
The nature of data set [9]: Wool growth in defaunated sheep. It counts as in vivo. Particulars: 167 mg/kg; for Response To Defaun: clean wool growth defaunated vs refaunated. The method, then: as §1, §2, §3

With `Cc1ccc(Nc2nc(Cl)nc(Cl)n2)cc1Cl` [Compound 27, 2,4 dichloro-6-(3 chloro-4-methylanilino)-s-triazine], the “Prot. Number” value with protozoa [1] is given as 0 per mL × 10^3. For the same molecule, the “Elimination of protozoa from cattle (in words)” value in the data set with protozoa [2] is “able to eliminate protozoa from cattle”. In addition, the Mean protozoal number in the data set on protozoa [2] (week 0, 332 mg/kg) was 220 per mL × 10^3; in the data set on protozoa [2] (week 4, 332 mg/kg), 0 per mL × 10^3. The “Conc Required to Kill all Protozoa” value in the data set on rumen ciliate protozoa is reported as 150 ppm. Further, the “Feed Intake” value in the data set “Sheep test: feed intake” (1 week after 167 mg/kg) amounted to 1000 g/day; in the data set “Sheep test: feed intake” (3 weeks after 167 mg/kg), 1000 g/day; in the data set “Sheep test: feed intake” (pre-dose (baseline)), 966 g/day. Besides, the Elimination of protozoa entry in the data set with protozoa [3] is listed as “total elimination of protozoa in all sheep”. Moreover, the Protozoal number was found to be 285 per mL × 10^3 with protozoa [3] (week 0, 167 mg/kg); 0 per mL × 10^3 in the data set with protozoa [3] (week 1, 167 mg/kg); 0 per mL × 10^3 in the data set on protozoa [3] (week 2, 167 mg/kg). Besides, the “Adverse effects and grazing behavior” value in data set [4] is “no adverse effects and grazing behavior was normal”. Moreover, the “Bacterial Viability” value with rumen bacteria [5] was “Okay”. Also, the “Protozoal Nos.” value was determined as 0 per mL × 10^3 in the data set with protozoa [6] (1 week after 167 mg/kg), 0 per mL × 10^3 in the data set on protozoa [6] (3 weeks after 167 mg/kg) and 950 per mL × 10^3 with protozoa [6] (pre-dose (baseline)). Further, in the data set on rumen bacteria [7], the “Bact. Gas Inhibition at the conc. required to kill protozoa” value is 67. Besides, the Bacterial gas production is 3.5 M1 per 5 hr in the data set on rumen bacteria [8] (1 week after 167 mg/kg), 3.8 M1 per 5 hr in the data set on rumen bacteria [8] (3 weeks after 167 mg/kg) and 2.9 M1 per 5 hr with rumen bacteria [8] (pre-dose (baseline)). The “Response To Defaun” value in [9] (sheep) stood at 10.3. In addition, the “Clean Wool Growth” value in data set [9] (sheep, defaunated period, 4 weeks, per midside patch) is 1.753 g.
As to `Clc1nc(Cl)nc(Nc2ccccc2Cl)n1` [Compound 37, 2,4-dichloro-6-(2-chloroanilino)-1,3,5-triazine], in the data set on protozoa [1], the “Prot. Number” value is on record as 0 per mL × 10^3. The “Elimination of protozoa from cattle (in words)” value in the data set with protozoa [2] is on record as “able to eliminate protozoa from cattle”. The Mean protozoal number in the data set on protozoa [2] (week 0, 332 mg/kg) is 313 per mL × 10^3; with protozoa [2] (week 4, 332 mg/kg) it was 0 per mL × 10^3. In addition, the “Conc Required to Kill all Protozoa” value with rumen ciliate protozoa worked out at 250 ppm. The “Feed Intake” value amounted to 930 g/day in “Sheep test: feed intake” (1 week after 167 mg/kg), 820 g/day in “Sheep test: feed intake” (3 weeks after 167 mg/kg) and 1000 g/day in “Sheep test: feed intake” (pre-dose (baseline)). For the same molecule, the Elimination of protozoa entry with protozoa [3] is reported as “total elimination of protozoa in all sheep”. The Protozoal number with protozoa [3] (week 0, 167 mg/kg) is listed as 190 per mL × 10^3; in the data set with protozoa [3] (week 1, 167 mg/kg) it was 0 per mL × 10^3; in the data set on protozoa [3] (week 2, 167 mg/kg), 0 per mL × 10^3. Besides, the “Adverse effects and grazing behavior” value in data set [4] was “no adverse effects and grazing behavior was normal”. Also, in the data set on rumen bacteria [5], the “Bacterial Viability” value is reported as “Okay”. Moreover, the “Protozoal Nos.” value with protozoa [6] (1 week after 167 mg/kg) came out at 0 per mL × 10^3; in the data set with protozoa [6] (3 weeks after 167 mg/kg), 0 per mL × 10^3; in the data set with protozoa [6] (pre-dose (baseline)), 497 per mL × 10^3. The “Bact. Gas Inhibition at the conc. required to kill protozoa” value with rumen bacteria [7] was found to be 57. Also, the Bacterial gas production is reported as 1.9 M1 per 5 hr in the data set on rumen bacteria [8] (1 week after 167 mg/kg), 3.4 M1 per 5 hr in the data set on rumen bacteria [8] (3 weeks after 167 mg/kg) and 1.8 M1 per 5 hr with rumen bacteria [8] (pre-dose (baseline)). In addition, the “Clean Wool Growth” value in [9] (672 h) was found to be 1.773 g. In addition, the “Response To Defaun” value in data set [9] (sheep) is on record as 8.9.
